Data from publication PMC9763021, “Comprehensive Assessment of Biomolecular Interactions of Morpholine-Based Mixed Ligand Cu(II) and Zn(II) Complexes of 2,2′-Bipyridine as Potential Anticancer and SARS-CoV-2 Agents: A Synergistic Experimental and Structure-Based Virtual Screening” (Bioinorganic Chemistry and Applications, 2022).

Legend:
[1] = test system: HepG2 liver cancer cell line; assay: MTT cell viability assay, HepG2; assay type: cell-based, human; conditions: 72 hours exposure
Method: (§1) All substances towards the A549, HepG2, MCF-7, and NHDF cell lines were evaluated by using the MTT approach. The collected data were utilized to compute the IC50 value and contrast it with the gold standard cisplatin anticancer medication.
(§2) Cellular viability or metabolic properties can be measured using the MTT assay, which is a powerful and credible method for anticancer properties. The anticancer efficacy of all test compounds was investigated by the MTT assay against A549, HepG2, MCF-7, and NHDF cell lines. As per the colorimetric approach, the IC50 findings of all test substances were evaluated as the % of cell viability/growth inhibition. […] Nevertheless, complex (1a) has the highest cytotoxic potential among others. The acquired findings were in the subsequent sequence as follows: (cisplatin) > (1a) > (2a) > (HL) (Figure 16 and Table 10). The cytotoxic effectiveness is dependent upon the DNA-binding modalities, the structure-activity relationship, as well as drug concentrations and incubation period exposure. […] As per Tweedy's chelation theory, charge equilibration happens as a result of coordination between the ligands and metal ions, which minimises the polarity of the metal ions and causes the capability of the test complexes to pass via the cell membrane lipid layer. Thus, it put off the synthesis of cell wall/protein/nucleic acids. Additionally, the results of DNA-binding tests using these complexes, including gel electrophoresis, UV-visible spectral titration, hydrodynamic, emission, and CV findings, were in good agreement with the findings of cytotoxicity. The expressions (46) and (47) were supported to measure the % of growth inhibition and cell viability. […]
(§3) A549, HepG2 MCF-7, and NHDF are represented as human lung cancer cell line, liver cancer cell line, breast cancer cell line, and normal human dermal fibroblasts cell line.(45) % Cytotoxiciy=1− Mean absorbance of Sample at 595 nm/Mean absorbance of Controlat 595 nm ×100, (46) Cellviability%=100−Cytotoxiciy%.

[2] = test system: MCF-7 breast cancer cell line; assay: MTT cell viability assay, MCF-7; assay type: cell-based, human; conditions: 72 hours exposure
Method: as §1, §2, §3

[3] = test system: NHDF normal human dermal fibroblasts cell line; assay: MTT cell viability assay, NHDF; assay type: cell-based; conditions: 72 hours exposure, normal cells
Method: as §1, §2, §3

[4] = test system: A549 human lung cancer cell line; assay: MTT cell viability assay, A549; assay type: cell-based; conditions: 72 hours exposure
Method: as §1, §2, §3

[5] = test system: Salmonella enteric serovar typhi; assay: Agar disc diffusion, strain B; assay type: cell-based
Method: (§4) In-vitro antimicrobial properties were evaluated for all samples by the agar disc diffusion method towards different fungal and bacterial strains. Additionally, the reported inhibition zone values were comparatively analyzed with the standard antifungal drugs ketoconazole and amphotericin B as well as the standard antibiotic medications streptomycin and amikacin.
(§5) The current research has a curious focus on the in vitro antimicrobial properties of biological systems because these studies are crucial for developing effective antibacterial and antifungal medications. […] It can also be spelled out based on the chelation theory proposed by Overtone and Tweedy. Chelation theory points out that the partial exchanging of the positive charge of the metal center with donor moieties, and overlap of the ligand orbitals will reduce the greater degree of the metal ion's polarity, which ultimately rises the delocalization of π and d electrons over the full chelated ring system. By raising the size of the metal ion due to the retarding of polarization, chelation may also enhance the complexes' lipophilic characteristics, which further stimulate the lipid membrane permeability and break down the bacteria' enzymes responsible for cell wall formation, therefore slowing down the regular cell processes. By preventing the production of cell walls/proteins/DNA, including by obstructing folate metabolism and the cytoplasmic membrane, antimicrobial drugs frequently either fully eliminate microbes or only prevent their cell growth. Additionally, the samples' mode of action may be employed in disrupting the cell's respiration process by forming an H-bond during the morpholine-fused iminic group coordinated with the active metal center of its components, inhibiting proliferation of the cell. […] The difference in the antimicrobial efficacy of some of the compounds towards various microorganisms influences on the impermeability of the cells of the germs or the diversity of ribosomes of the microbes. The % of the inhibition of all substances is estimated from (45) (Table 9).
(§6) (A, B, C, D, and E are represented as gram negative bacteria species Escherichia coli, Salmonella enteric serovar typhi, Salmonella enteric serovar typhi, Pseudomonas aeruginosa, and Shigella flexneri, respectively. F & G are denoted as gram positive bacteria species Staphylococcus aureus and Bacillus cereus. H, I, and J are represented as fungal strains Aspergillus niger, Candida albicans, and Mucor indicus. Standard drugs for bacterial strains: Amikacin & Streptomycin Standard drugs for fungal strains: Ketoconazole and Amphotericin B. [Control (DMSO) = 6 mm].(44) Inhibition %=T–C/T×100, where T and C are represented as the diameter of microbial growth of the sample plates and the control plate (6 mm), respectively. Error limits ±2.5–5.0% (P ≤ 0.05).

[6] = test system: Salmonella enteric serovar typhi; assay: Agar disc diffusion, strain C; assay type: cell-based
Method: as §4, §5, §6

[7] = test system: Escherichia coli; assay: Agar disc diffusion, strain A; assay type: cell-based; design: (inhibition %): concentration or dose not given beside the values
Method: as §4, §5, §6

[8] = test system: Shigella flexneri; assay: Agar disc diffusion, strain E; assay type: cell-based; design: (inhibition %): concentration or dose not given beside the values
Method: as §4, §5, §6

[9] = test system: Bacillus cereus; assay: Agar disc diffusion, strain G; assay type: cell-based; design: (inhibition %): concentration or dose not given beside the values
Method: as §4, §5, §6

[10] = test system: Pseudomonas aeruginosa; assay: Agar disc diffusion, strain D; assay type: cell-based; design: (inhibition %): concentration or dose not given beside the values
Method: as §4, §5, §6

[11] = test system: Staphylococcus aureus; assay: Agar disc diffusion, strain F; assay type: cell-based; design: (inhibition %): concentration or dose not given beside the values
Method: as §4, §5, §6

Compound	IC50 [1] [µM]	IC50 [2] [µM]	IC50 [3] [µM]	IC50 [4] [µM]	(inhibition %) [5] [%]	diameter of the clear zone inhibition ([5]; control = 6 mm) [mm]	(inhibition %) [6] [%]	diameter of the clear zone inhibition ([6]; control = 6 mm) [mm]	(inhibition %) ([7]; (T–C)/T×100) [%]	diameter of the clear zone inhibition ([7]; control (DMSO) = 6 mm) [mm]	(inhibition %) [8] [%]	diameter of the clear zone inhibition ([8]; control = 6 mm) [mm]	(inhibition %) [9] [%]	diameter of the clear zone inhibition ([9]; control = 6 mm) [mm]	(inhibition %) [10] [%]	diameter of the clear zone inhibition ([10]; control = 6 mm) [mm]	(inhibition %) [11] [%]	diameter of the clear zone inhibition ([11]; control = 6 mm) [mm]
N.N.[Cl][Pt][Cl] [Cisplatin, reference compound]	22.9 ± 1.1	20.2 ± 1	26.9 ± 1.3	31.9 ± 1.6														
NCC[C@H](O)C(=O)N[C@@H]1C[C@H](N)[C@@H](O[C@H]2O[C@H](CN)[C@@H](O)[C@H](O)[C@H]2O)[C@H](O)[C@H]1O[C@H]1O[C@H](CO)[C@@H](O)[C@H](N)[C@H]1O [Amikacin, reference compound]					73	22	75	24	73	22	70	20	70	20	70	20	70	20
